Assay results: patent US8975259B2, “Compositions and methods for inhibiting G protein signaling” (University of Rochester, priority 2007, dated 2015)
Like-named read-outs stand apart in the source and are kept apart here.

Target: Gβ1γ2 (UniProt P54311+P63212)
Assay: Competition phage ELISA: inhibition of SIGK-phage binding to immobilized biotinylated Gβ1γ2
Parameters: made in house; host or cells: Sf9 insect cells (baculovirus; co-expressed with BirA and (His)6-Gαi1, from which βγ was eluted); species or system rat
Settings: for binding to the G protein β subunit: result in words
Protocol: Phage ELISA assays used to assess peptide binding to wild-type and mutant b-βγ were performed according to standard methods (Smrcka and Scott (2002) Methods Enzymol. 344:557-76). Briefly, 1 μg streptavidin was immobilized in the well of a […] overnight at 4° C. The wells were blocked with 100 μL of 2% bovine serum albumin (BSA) in Tris-buffered saline (TBS) for 1 hour at 4° C. followed by three washes of IX TBS/0.5% TWEEN®. […] The wells were washed, followed by the addition of IxIO^6 to IxIO^10 phage particles and incubated at 4° C. for 3 hours. The wells were then washed six times with TBS/0.5% TWEEN® followed by addition of 40 μL of 1:5000 dilution of anti-M13 antibody (Pharmacia, Uppsala, Sweden) and incubated at room temperature for 1 hour. The wells were washed, followed by the addition of 40 μL of (2,2′-Azino-bis (3-ethylbenzthiazoline)-6-sulfonic acid (ABTS) and the colorimetric reaction was monitored at 405 nm. Nonspecific binding was subtracted for each reading.
A phage ELISA assay was used to determine whether small molecules identified in the computational screen could interact with the Gβy protein interaction surface. […] The screen was based on a reduction in the optical density (OD) of wells containing Gβγ subunits and phage. […] Three background wells contained no βy subunits.
As disclosed herein, biotinylated Gβy subunits were immobilized on the surface of a 96-well plate coated with streptavidin, phage displaying Gβγ-binding peptides were subsequently added and binding in the presence and absence of test compounds detected with an anti-phage antibody.
The phage ELISA assay was used to rapidly screen the ability of compounds to bind to the protein interaction “hot spot” based on the method of Scott et. al (Scott et al., 2001). This assay is performed in the presence of detergent (0.5% Tween) to eliminate non-specific compound aggregation artifacts.
Compounds/DMSO and 0.1×10^10 phage were added simultaneously and subsequently incubated for 1 h at room temperature. Plates were then washed with 1× Tris-buffered saline/0.5% Tween 20 and incubated with anti-M13, HRP-conjugated antibody (Amersham, Chalfont St. Giles, Buckinghamshire, UK). Phage binding was determined by monitoring A405 upon addition of 2,2′-azino-bis(3-ethylbenzothiazoline-6-sulfonic acid) (Sigma Aldrich).

[1] = Table 18, compounds identified in Elisa screen, read-out: IC50

Compound	IC50 (Table 8, read-out: IC50) [µM]	IC50 [1] [µM]	binding to the G protein β subunit	also measured
Cc1c2ccc(=O)cc-2oc2cc(O)ccc12 [6-hydroxy-9-methyl-3H-xanthen-3-one]	–	–	not to bind	–
O=C(O)/C=C/c1c2ccc(=O)c(O)c-2oc2c(O)c(O)ccc12 [(E)-3-(4,5,6-trihydroxy-3-oxo-3H-xanthen-9-yl)acrylic acid]	–	–	–	IC50 (kind of constant not stated, read-out: binding to the G protein β subunit): 0.2 µM
O=C(O)/C=C/c1c2ccc(=O)cc-2oc2cc(O)ccc12 [(E)-3-(6-hydroxy-3-oxo-3H-xanthe-9-yl)acrylic acid]	–	–	Neither of these compounds showed any binding	–
Nc1c(S(=O)(=O)O)cc(Nc2cccc(S(N)(=O)=O)c2)c2c1C(=O)c1ccccc1C2=O [drawing 50]	–	–	–	IC50 (Table 2, read-out: Elisa IC50): 56 µM

Further lines, with some results ahead:

IC50 (Table 8, read-out: IC50) [µM]	IC50 [1] [µM]	Compound	binding to the G protein β subunit	also measured
43	56	Nc1c(S(=O)(=O)O)cc(Nc2cccc(S(N)(=O)=O)c2)c2c1C(=O)c1ccccc1C2=O [Compound M117]	–	–
68	18	Nc1ccc(-c2ccc(Nc3cc(S(=O)(=O)O)c(N)c4c3C(=O)c3ccccc3C4=O)cc2)c(S(=O)(=O)O)c1 [Compound M125]	–	–
